Results from article PMC3530194 (Bioorganic & medicinal chemistry letters, 2012).

Key:
[1] = type: in vitro ADME, bovine; conditions: after 24 hours of serum pretreatment; Fig. 2D
[2] = system: LS174T indicator cells; type: cell-based; conditions: human cells (LS174T), over the first 12 hours; Fig. 3A
[3] = Fig. 2E; for surface expression of azido-modified sialic acids: after 24 hours of FBS pre-treatment; for loss of surface azido-sialic acid signal: first four hours of FBS treatment
[4] = type: in vitro ADME, bovine
[5] = system: hereditary inclusion body myopathy mouse model; conditions: cited from earlier work
[6] = cited from earlier work

Row | SMILES | increased sialic acid production compared among analogs [2] | surface expression of azido-modified sialic acids [3] | loss of surface azido-sialic acid signal [3] | further results
1 | CCCC(=O)OC[C@H]1OC(O)[C@@H](NC(C)=O)[C@@H](OC(=O)CCC)[C@@H]1OC(=O)CCC (stereo partly shown) [3,4,6-O-Bu3ManNAc] | statistically identical levels | – | – | loss of analog-enhanced cell growth inhibition [1]: complete reversal
2 | CCCC(=O)OC[C@H]1OC(OC(=O)CCC)[C@@H](NC(=O)CN=[N+]=[N-])[C@@H](OC(=O)CCC)[C@@H]1OC(=O)CCC (stereo partly shown) [Bu4ManNAz] | – | reduction, but not complete reversal | refractory to a loss of signal | –
3 | CC(=O)N[C@@H]1C(OC(C)=O)O[C@H](COC(C)=O)[C@@H](OC(C)=O)[C@@H]1OC(C)=O (stereo partly shown) [Ac4ManNAc, reference compound] | – | – | – | serum inactivation of analog, read as sialic acid production in indicator cells ([4]; FBS (100% serum) pre-incubation, Fig. 2A): refractory to serum inactivation; time of peak sialic acid production after administration [5]: peaked as soon as four hours after administration
4 | CCCC(=O)OC1O[C@H](CO)[C@@H](OC(=O)CCC)[C@H](OC(=O)CCC)[C@@H]1NC(C)=O (stereo partly shown) [1,3,4-O-Bu3ManNAc] | statistically identical levels | – | – | reduction in analog-enhanced sialic acid production ([4]; after four hours of serum treatment, Fig. 2C): only a relatively minor reduction; side effects such as cytotoxicity [6]: negligible
5 | CCCC(=O)OCC1OC(OC(=O)CCC)C(NC(C)=O)[C@@H](OC(=O)CCC)[C@@H]1OC(=O)CCC (stereo partly shown) [Bu4ManNAc] | statistically identical levels | – | – | reversion of analog-enhanced sialic acid production in indicator cells ([4]; lower concentrations of FBS (10% or 25%), Fig. 2B): did not result in a statistically significant reversion
6 | CC(=O)OC[C@H]1OC(OC(C)=O)[C@@H](NC(=O)CN=[N+]=[N-])[C@@H](OC(C)=O)[C@@H]1OC(C)=O (stereo partly shown) [Ac4ManNAz, reference compound] | – | reduction, but not complete reversal | refractory to a loss of signal | –
